Among the data in patent publication US9809602B2, “Compounds for treating viral infections” (INSTITUT PASTEUR KOREA, priority 2014, dated 2017) are EC50 values, retold here.

One assay deals with genotype 1/2 chimeric cell culture derived HCV (HCVcc). The experiment in a line: Genotype 1/2 chimeric HCVcc assay (nano-luciferase, HCV replication). It counts as cell-based. As to conditions: Hepatitis C virus. The method, boiled down:
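Huh-7.5 cells (2400/well) pretreated 2 h with serially diluted compound, then infected with nano-luciferase genotype 1a/2a (JFH-1) chimeric HCVcc. At 72 h post infection, nano-luciferase reported replication and cellular ATP reported cytotoxicity; EC50 and CC50 by non-linear regression.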
Usually EC50 stands for the midpoint of the concentration-response curve. A low value points to a more potent agent. As to `NS(=O)(=O)c1ccc(-c2ccc(C(=O)NCCCN3CCC(N4CCCCC4)CC3)cc2)cc1` [Compound 1128], the EC50 was over 10 µM. Consider `O=C(NCCCN1CCC(N2CCCCC2)CC1)c1ccc(-c2ccccc2OC(F)(F)F)cc1` [Compound 1149], for which the EC50 fell in the range of 0.1 to 1 µM. Still for that read-out and setting: next, `O=S(=O)(NCCCN1CCC(N2CCCCC2)CC1)c1ccc(-c2ccc(F)cc2)cc1` [Compound 1096]: 0.1 to 1 µM; `O=C(NCCCN1CCC(N2CCCCC2)CC1)c1ccc(-c2ccc(F)cc2Cl)cc1` [Compound 1132]: 0.1 to 1 µM. Compound `O=C(NCCCN1CCC(N2CCCCC2)CC1)c1ccc(-c2ccc3c(c2)OCO3)cc1` [Compound 1130] yielded an EC50 of 0.1 to 1 µM. Same read-out and setting: next, `N#Cc1cc(NC(=O)CCCN2CCC(N3CCCCC3)CC2)ccc1-c1ccc(C(F)(F)F)cc1` [Compound 1159]: 0.1 to 1 µM; `O=C(NCCCN1CCC(N2CCCCC2)CC1)c1ccc(-c2ccc(C(F)(F)F)nc2)cc1` [Compound 1101]: 0.1 to 1 µM. In the case of `O=S(=O)(NCCCN1CCC(N2CCCCC2)CC1)c1ccc(Oc2ccc(C(F)(F)F)cc2)cc1` [Compound 1094], the EC50 fell in the range of 0.1 to 1 µM. `COc1cccc(-c2ccc(C(=O)NCCCN3CCC(N4CCCCC4)CC3)cc2)c1` [Compound 1018] returned an EC50 of 0.1 to 1 µM. Still for that read-out and setting: next, `Cc1ccc(-c2ccc(S(=O)(=O)NCCCN3CCC(N4CCCCC4)CC3)cc2)cc1` [Compound 1098]: 0.1 to 1 µM. For the compound `O=C(c1ccc(Oc2ccccc2)cc1)N1CCC(C(=O)N2CCC(N3CCCCC3)CC2)C1` (stereo not drawn) [Compound 1054], the EC50 is over 10 µM. Compound `O=C(NCCCN1CCC(Oc2ccccc2)CC1)c1ccc(Oc2ccccc2)cc1` [Compound 1056] registered an EC50 of 1 to 10 µM.

In turn, `Cc1ccc(-c2ccc(C(=O)NCCCN3CCC(N4CCCCC4)CC3)cc2)c(F)c1` [Compound 1135] gave an EC50 of 0.1 to 1 µM. Same read-out and setting: next, `Cc1ccccc1-c1ccc(C(=O)NCCCN2CCC(N3CCCCC3)CC2)cc1` [Compound 1015]: 0.1 to 1 µM; `O=C(NCCCCN1CCC(N2CCCCC2)CC1)c1ccc(Oc2ccccc2)cc1` [Compound 1045]: 0.1 to 1 µM. On to `O=C(NCCCN1CCC(NC2CCCCC2)CC1)c1ccc(Oc2ccccc2)cc1` [Compound 1079], for which the EC50 lay within 0.1 to 1 µM.

With `O=C(NCCCN1CCC(N2CCCCC2)CC1)c1ccc(-c2cccc(OC(F)(F)F)c2)cc1` [Compound 1145], the EC50 lay within 0.1 to 1 µM. Consider `O=C(NCCCN1CCC(c2ccncc2)CC1)c1ccc(Oc2ccccc2)cc1` [Compound 1055], for which the EC50 was over 10 µM. Same read-out and setting: next, `O=C(NCCCN1CCC(N2CCCCC2)CC1)c1ccc(Oc2ccc(F)cc2)cc1` [Compound 1033]: 1 to 10 µM.

Turning to `O=C(NCCCN1CCC(N2CCCCC2)CC1)c1ccc2cc[nH]c2c1` [Compound 1008], the EC50 was over 10 µM. Compound `O=C(NCCCN1CCC(N2CCCCC2)CC1)c1ccc(-c2ccc(C(F)(F)F)cc2)cc1C(F)(F)F` [Compound 1104] returned an EC50 of 0.1 to 1 µM. Still for that read-out and setting: as for `O=C(NCCCN1CCC(N2CCCCC2)CC1)c1ccc(C2CCCCC2)cc1` [Compound 1003], the figure is 0.1 to 1 µM; as for `O=C(NCCCN1CCC(N2CCCCC2)CC1)c1ccc(-c2ccc(C(F)(F)F)cc2)s1` [Compound 1081], 0.1 to 1 µM. In turn, `O=S(=O)(NCCCCN1CCC(N2CCCCC2)CC1)c1ccc(-c2ccc(C(F)(F)F)cc2)cc1` [Compound 1095] yielded an EC50 of 0.1 to 1 µM. On to `O=C(NCCCN1CCC(N2CCCCC2)CC1)c1ccc(Oc2ccccc2F)cc1` [Compound 1061], for which the EC50 lay in the range of 1 to 10 µM.

Staying with this assay, now noted: Hepatitis C virus, Huh7.5, 72 h.
In turn, `CC(C)OC(=O)c1c(NC(=O)NCc2c(-n3cccc3)sc3c2CCN(C)C3)sc2c1CCCC2` [Compound 156] had an EC50 of under 0.1 µM. Same read-out and setting: next, `CC(C)(C)OC(=O)c1c(NC(=O)NCc2c(C(F)(F)F)sc3c2CCNC3)sc2c1CCOC2` [Compound 238]: under 0.1 µM. The same measure, in the same setting: as for `CC(C)(C)OC(=O)c1c(NC(=O)NCc2c(C(F)(F)F)sc3c2CCNC3)sc2c1CCC2` [Compound 244], the figure is under 0.1 µM. On the same count and under the same terms, as for `CC(C)(C)OC(=O)c1c(NC(=O)NCc2c(-c3cncc(F)c3)sc3c2CCNC3)sc2c1CCCC2` [Compound 248], the figure is under 0.1 µM; as for `CN(C)CCN1CCc2c(sc(-c3cccc(F)c3)c2CNC(=O)Nc2sc3c(c2C(=O)OC(C)(C)C)CCCC3)C1` [Compound 359], under 0.1 µM.

The compound `CCOC(=O)c1c(NC(=O)NCc2c(-n3cccc3)sc3c2CCN(CC)C3)sc2c1CCCC2` [Compound 2] gave an EC50 of under 0.1 µM. The same measure, in the same setting: next, `CCOC(=O)c1c(NC(=O)NCc2c(C(F)(F)F)sc3c2CCNC3)sc2c1CC(C)CC2` (stereo not drawn) [Compound 194]: under 0.1 µM; `O=C(NCc1c(-n2cccc2)sc2c1CCNC2)Nc1sc2c(c1C(=O)NCc1ccccc1)CCCC2` [Compound 82]: 0.1 to 1 µM; `Cc1sc(NC(=O)C(=O)NCc2c(C(F)(F)F)sc3c2CCNC3)c(C(=O)OC(C)(C)C)c1C` [Compound 360]: 0.1 to 1 µM. Still for that read-out and setting: next, `CC(C)(C)OC(=O)c1c(NC(=O)NCc2c(-n3cccc3)sc3c2CCN(C2CCC2)C3)sc2c1CCCC2` [Compound 260]: under 0.1 µM. The same measure, in the same setting: next, `CCOC(=O)c1c(NC(=O)NCc2c(Br)sc3c2CCN(CC)C3)sc2c1CCCC2` [Compound 110]: under 0.1 µM; `CC1CCCc2sc(NC(=O)NCc3c(Br)sc4c3CCNC4)c(C(=O)OC(C)(C)C)c21` (stereo not drawn) [Compound 290]: under 0.1 µM.

`Cc1sc(NC(=O)NCc2c(-c3cccc(Cl)c3)sc3c2CCNC3)c(C(=O)OC2CCOC2)c1C` (stereo not drawn) [Compound 357]: the EC50 fell in the range of 0.1 to 1 µM. The same measure, in the same setting: as for `CCOC(=O)c1c(NC(=O)NCc2c(Br)sc3c2CCNC3)sc2c1CC(C)CC2C` (stereo not drawn) [Compound 207], the figure is under 0.1 µM. In turn, `Cn1ccc(-c2sc3c(c2CNC(=O)Nc2sc4c(c2C(=O)OC(C)(C)C)CCCC4)CCNC3)c1` [Compound 182] gave an EC50 of under 0.1 µM. The same measure, in the same setting: as for `CCN1CCc2c(sc(-n3cccc3)c2CNC(=O)Nc2ccccc2C(=O)OC)C1` [Compound 10], the figure is over 10 µM. On the same count and under the same terms, next, `CC(C)(C)OC(=O)c1c(NC(=O)NCc2c(-c3ccsc3)sc3c2CCNC3)sc2c1CCCC2` [Compound 203]: under 0.1 µM; `CCOC(=O)c1c(NC(=O)NCc2c(C(F)(F)F)sc3c2CCNC3)sc2c1CCOC2` [Compound 150]: under 0.1 µM. Same read-out and setting: next, `CCc1c(C)sc(NC(=O)NCc2c(C(F)(F)F)sc3c2CCNC3)c1C(=O)OC(C)(C)C` [Compound 268]: under 0.1 µM; `CCOC(=O)c1c(NC(=O)NCc2c(C)sc3c2CCNC3)sc2c1CCCC2` [Compound 107]: under 0.1 µM. As to `CCOC(=O)c1c(NC(=O)NC(C)c2c(-n3cccc3)sc3c2CCN(CC)C3)sc2c1CCCC2` (stereo not drawn) [Compound 1], the EC50 fell in the range of 0.1 to 1 µM. Same read-out and setting: next, `CCN1CCc2c(sc(-n3cccc3)c2CNC(=O)Nc2sc3c(c2C(=O)OC(C)C)CCCC3)C1` [Compound 157]: under 0.1 µM; `CCOC(=O)c1c(NC(=O)NCc2c(-n3cccc3)sc(CN(C)C)c2C)sc2c1CCCC2` [Compound 22]: under 0.1 µM. On the same count and under the same terms, next, `CCOC(=O)c1c(NC(=O)NCc2csc3c2CCNC3)sc2c1CCCC2` [Compound 38]: under 0.1 µM; `CCOC(=O)c1c(NC(=O)NCc2c(-n3cccc3)sc3c2CCN(C)C3)sc2c1CC(C)CC2` (stereo not drawn) [Compound 191]: under 0.1 µM. Same read-out and setting: next, `CCOC(=O)c1c(NC(=O)NCc2c(Cl)sc3c2CCNC3)sc2c1CCCC2` [Compound 97]: 0.1 to 1 µM; `CCN1CCc2c(sc(-n3cccc3)c2CNC(=O)Nc2sc3c(c2C(N)=O)CCCC3)C1` [Compound 37]: 0.1 to 1 µM; `CC1Cc2c(sc(NC(=O)NCc3c(C(F)(F)F)sc4c3CCNC4)c2C(=O)OC(C)(C)C)C(C)C1` (stereo not drawn) [Compound 266]: under 0.1 µM. `CC(C)OC(=O)c1c(NC(=O)NCc2c(Br)sc3c2CC[N+](C)(C)C3)sc2c1CCCC2` [Compound 173] yielded an EC50 of under 0.1 µM. Still for that read-out and setting: next, `CNCc1sc(-n2cccc2)c(CNC(=O)Nc2sc3c(c2C(=O)OC(C)(C)C)CCCC3)c1C` [Compound 158]: 0.1 to 1 µM. The same measure, in the same setting: as for `CCOC(=O)c1c(NC(=O)NCc2c(-n3cccc3)sc3c2CCN(CC)C3)sc2c1CC(C)CC2` (stereo not drawn) [Compound 192], the figure is under 0.1 µM; as for `CN(C)CCN1CCc2c(sc(C(F)(F)F)c2CNC(=O)Nc2sc3c(c2C(=O)OC(C)(C)C)CCCC3)C1` [Compound 355], under 0.1 µM; as for `CCOC(=O)c1c(NC(=O)c2cc3c(s2)CCCC3)sc2c1CCN(CC)C2` [Compound 17], 1 to 10 µM.

On to `CCOC(=O)c1c(NC(=O)NCc2c(N3CCCC3)sc3c2CCN(C(=O)OC(C)(C)C)C3)sc2c1CCCC2` [Compound 73], for which the EC50 is under 0.1 µM. `CCOC(=O)c1c(NC(=O)NCc2c(-n3cccc3)sc3c2CCCNC3)sc2c1CCCC2` [Compound 243]: the EC50 was under 0.1 µM. On the same count and under the same terms, next, `C#CCN1CCc2c(sc(-n3cccc3)c2CNC(=O)Nc2sc3c(c2C(=O)OC(C)(C)C)CCCC3)C1` [Compound 325]: under 0.1 µM; `CC(C)(C)OC(=O)c1c(NC(=O)NCc2c(-n3cccc3)sc3c2CCN(C2COC2)C3)sc2c1CCCC2` [Compound 261]: under 0.1 µM. The same measure, in the same setting: next, `Cc1c(CN(C)C)sc(C(F)(F)F)c1CNC(=O)Nc1sc2c(c1C(=O)OC(C)(C)C)CCCC2` [Compound 134]: under 0.1 µM; `CC(C)(C)OC(=O)c1c(NC(=O)NCc2c(-n3cccc3)sc3c2CCN(CCF)C3)sc2c1CCCC2` [Compound 242]: under 0.1 µM; `CC(C)(C)OC(=O)c1c(NC(=O)NCc2c(-n3cccc3)sc3c2CCNC3)sc2c1CCC2` [Compound 277]: under 0.1 µM. Still for that read-out and setting: next, `COC(=O)c1c(NC(=O)NCc2c(Br)sc3c2CC[N+](C)(C)C3)sc2c1CCCC2` [Compound 176]: under 0.1 µM; `CCOC(=O)c1c(NC(=O)NCc2c(-n3cccc3)sc3c2CCNC3)sc2c1CCNC2` [Compound 64]: 1 to 10 µM; `CC(C)N1CCc2c(sc(C(F)(F)F)c2CNC(=O)Nc2sc3c(c2C(=O)OC(C)(C)C)CCCC3)C1` [Compound 186]: under 0.1 µM. The compound `CC(C)(C)OC(=O)c1c(NC(=O)NCc2c(C3CC3)sc3c2CCNC3)sc2c1CCCC2` [Compound 285] came in with an EC50 of under 0.1 µM.
